Assay results published in US12370235B2, “Synthetic, non-natural antimicrobial peptides inspired by Staphylococcus auricularis delta toxin” (University of Saskatchewan, priority 2021, dated 2025).
Ends that are not written are not given here.

Key:
C. albicans MYA-2876 = assay: MIC, YPD broth; type: cell-based, Candida albicans; details: Table 8
In short: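 Yeast cells were diluted in YPD broth, and 180 μl aliquots were mixed with 20 μl of peptide from 2-fold serial dilutions in flat-bottom 96-well microtitre plates. Wells receiving 20 μl sterile water served as controls. After standing incubation overnight at 37° C, the MIC was taken as the lowest peptide concentration with no visible microbial growth.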

[1] = tested on: Saccharomyces cerevisiae AR 399; assay: MIC, YPD broth, CDC and FDA AR Candida isolate panel; type: cell-based; details: Table 9 below the line: only 200 or 100 μg/mL tested; values reported as 100 are ≤100 μg/mL
In short: (§1)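 Overnight standing culture at 37° C in the presence of peptide serially diluted by halves. Starting cell density corresponded to an optical density of […].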

Candida krusei AR 397 = assay: as above; type: cell-based; details: Table 9 below the line: only 200 or 100 μg/mL tested; values reported as 100 are ≤100 μg/mL
In short: as §1

[2] = tested on: Candida lusitaniae AR 398; assay: as above; type: cell-based; details: Table 9 below the line: only 200 or 100 μg/mL tested; values reported as 100 are ≤100 μg/mL
In short: as §1

Kodamae ohmeri AR 396 = assay: as above; type: cell-based; details: Table 9 below the line: only 200 or 100 μg/mL tested; values reported as 100 are ≤100 μg/mL
In short: as §1

[3] = tested on: Candida duobushaemulonii AR 391; assay: as above; type: cell-based; details: Table 9 below the line: only 200 or 100 μg/mL tested; values reported as 100 are ≤100 μg/mL
In short: as §1

[4] = tested on: Saccharomyces cerevisiae AR 400; assay: as above; type: cell-based; details: Table 9 below the line: only 200 or 100 μg/mL tested; values reported as 100 are ≤100 μg/mL
In short: as §1

[5] = tested on: Candida haemulonii AR 395; assay: as above; type: cell-based; details: Table 9 below the line: only 200 or 100 μg/mL tested; values reported as 100 are ≤100 μg/mL
In short: as §1

[6] = tested on: Candida haemulonii AR 393; assay: as above; type: cell-based; details: Table 9 below the line: only 200 or 100 μg/mL tested; values reported as 100 are ≤100 μg/mL
In short: as §1

[7] = tested on: Candida duobushaemulonii AR 394; assay: as above; type: cell-based; details: Table 9 below the line: only 200 or 100 μg/mL tested; values reported as 100 are ≤100 μg/mL
In short: as §1

[8] = tested on: Candida duobushaemulonii AR 392; assay: as above; type: cell-based; details: Table 9 below the line: only 200 or 100 μg/mL tested; values reported as 100 are ≤100 μg/mL
In short: as §1

[9] = tested on: S. aureus ATCC BAA-2313 (MRSA SCCmec type XI); assay: MIC, broth dilution; type: cell-based, Staphylococcus aureus; details: Table 5; STIP3 variants, highest concentration 100 μg/mL
In short: (§2)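 Peptides (95% purity) were serially diluted 2-fold and mixed with bacteria diluted to OD 6×10^−4 in cation-adjusted Mueller Hinton broth. Standing cultures were incubated overnight at 37° C. MIC was the lowest peptide concentration with no observed growth.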

S. aureus ATCC 29213 = assay: MIC, broth dilution; type: cell-based, Staphylococcus aureus; details: Table 5; STIP3 variants, highest concentration 100 μg/mL
In short: as §2

[10] = tested on: S. aureus ATCC BAA-41 (MRSA SCCmec type II); assay: MIC, broth dilution; type: cell-based, Staphylococcus aureus; details: Table 5; STIP3 variants, highest concentration 100 μg/mL
In short: as §2

[11] = tested on: S. aureus ATCC 33592 (MRSA SCCmec type III); assay: MIC, broth dilution; type: cell-based, Staphylococcus aureus; details: Table 5; STIP3 variants, highest concentration 100 μg/mL
In short: as §2

[12] = tested on: S. aureus ATCC BAA-1683 (MRSA SCCmec type IV); assay: MIC, broth dilution; type: cell-based, Staphylococcus aureus; details: Table 5; STIP3 variants, highest concentration 100 μg/mL
In short: as §2

[13] = tested on: S. aureus ATCC BAA-44 (MRSA SCCmec type I); assay: MIC, broth dilution; type: cell-based, Staphylococcus aureus; details: Table 5; STIP3 variants, highest concentration 100 μg/mL
In short: as §2

[14] = tested on: S. aureus ATCC BAA-42 (MRSA SCCmec type VI); assay: MIC, broth dilution; type: cell-based, Staphylococcus aureus; details: Table 5; STIP3 variants, highest concentration 100 μg/mL
In short: as §2

[15] = tested on: S. aureus ATCC BAA-2094 (MRSA SCCmec type V); assay: MIC, broth dilution; type: cell-based, Staphylococcus aureus; details: Table 5; STIP3 variants, highest concentration 100 μg/mL
In short: as §2

[16] = tested on: Mannheimia haemolytica ATCC 33393; assay: MIC, broth dilution; type: cell-based; details: Table 11; highest concentration 25 μg/mL
In short: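 Read-out is the lowest peptide concentration showing no growth after an overnight standing culture at 37 °C. Two-fold serial dilutions of 95%-pure peptide were tested against M. haemolytica ATCC 33393 at OD 6×10^−4 in cation-adjusted MH broth.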

Sequence	MIC C. albicans MYA-2876 (C. albicans MYA-2876)	MIC (μg/mL) Saccharomyces cerevisiae AR 399 [1]	MIC (μg/mL) Candida krusei AR 397 (Candida krusei AR 397)	MIC (μg/mL) Candida lusitaniae AR 398 [2]	MIC (μg/mL) Kodamae ohmeri AR 396 (Kodamae ohmeri AR 396)	MIC (μg/mL) Candida duobushaemulonii AR 391 [3]	MIC (μg/mL) Saccharomyces cerevisiae AR 400 [4]	MIC (μg/mL) Candida haemulonii AR 395 [5]	MIC (μg/mL) Candida haemulonii AR 393 [6]	MIC (μg/mL) Candida duobushaemulonii AR 394 [7]	MIC (μg/mL) Candida duobushaemulonii AR 392 [8]	MIC S. aureus ATCC BAA 2313 (XI) [9]	MIC S. aureus ATCC 29213 (S. aureus ATCC 29213)	MIC S. aureus ATCC BAA 41 (II) [10]	MIC S. aureus ATCC 33592 (III) [11]	MIC S. aureus ATCC BAA 1683 (IV) [12]	MIC S. aureus ATCC BAA 44 (I) [13]	MIC S. aureus ATCC BAA 42 (VI) [14]	MIC S. aureus ATCC BAA 2094 (V) [15]	MIC (μg/mL) M. haemolytica [16]
TVGGLVKWILDWVKKFA [STIP3-10, TVGGLVKWILDWVKKFA]	50 µg/mL	> (values below the line were determined using two concentrations of peptide 200 or 100 μg/mL)	> (values below the line were determined using two concentrations of peptide 200 or 100 μg/mL)	> (values below the line were determined using two concentrations of peptide 200 or 100 μg/mL)	> (values below the line were determined using two concentrations of peptide 200 or 100 μg/mL)	> (values below the line were determined using two concentrations of peptide 200 or 100 μg/mL)	≤ 100 µg/mL	> (values below the line were determined using two concentrations of peptide 200 or 100 μg/mL)	> (values below the line were determined using two concentrations of peptide 200 or 100 μg/mL)	> (values below the line were determined using two concentrations of peptide 200 or 100 μg/mL)	> (values below the line were determined using two concentrations of peptide 200 or 100 μg/mL)	50 µg/mL	100 µg/mL	100 µg/mL	100 µg/mL	> (no inhibition was observed at the highest concentration of peptide tested: 100 μg/mL for the STIP3 variants)	200 µg/mL	25 µg/mL	100 µg/mL	> (> symbol indicates that no inhibition was observed at the highest concentration of peptide tested: 25 μg/mL)
TVGGLVKWILKAVKKFA [STIP3-13, TVGGLVKWILKAVKKFA]	50 µg/mL	≤ 100 µg/mL	≤ 100 µg/mL	≤ 100 µg/mL	> (values below the line were determined using two concentrations of peptide 200 or 100 μg/mL)	≤ 100 µg/mL	≤ 100 µg/mL	> (values below the line were determined using two concentrations of peptide 200 or 100 μg/mL)	> (values below the line were determined using two concentrations of peptide 200 or 100 μg/mL)	≤ 100 µg/mL	≤ 100 µg/mL	25 µg/mL	25 µg/mL	12.5 µg/mL	25 µg/mL	25 µg/mL	25 µg/mL	25 µg/mL	25 µg/mL	12.5 µg/mL
TVGGLVKWILNTVKKFA [STIP3-4, TVGGLVKWILNTVKKFA]	12.5 µg/mL	≤ 100 µg/mL	≤ 100 µg/mL	≤ 100 µg/mL	> (values below the line were determined using two concentrations of peptide 200 or 100 μg/mL)	> (values below the line were determined using two concentrations of peptide 200 or 100 μg/mL)	≤ 100 µg/mL	> (values below the line were determined using two concentrations of peptide 200 or 100 μg/mL)	> (values below the line were determined using two concentrations of peptide 200 or 100 μg/mL)	> (values below the line were determined using two concentrations of peptide 200 or 100 μg/mL)	> (values below the line were determined using two concentrations of peptide 200 or 100 μg/mL)	100 µg/mL	100 µg/mL	50 µg/mL	50 µg/mL	100 µg/mL	50 µg/mL	50 µg/mL	50 µg/mL	25 µg/mL
TVGVLVKWILDTVKKFA [STIP3-8, TVGVLVKWILDTVKKFA]	> (> symbol indicates that no inhibition was observed at the highest concentration of peptide tested: 100 μg/mL)	≤ 100 µg/mL	≤ 100 µg/mL	180 µg/mL	> (values below the line were determined using two concentrations of peptide 200 or 100 μg/mL)	> (values below the line were determined using two concentrations of peptide 200 or 100 μg/mL)	≤ 100 µg/mL	> (values below the line were determined using two concentrations of peptide 200 or 100 μg/mL)	> (values below the line were determined using two concentrations of peptide 200 or 100 μg/mL)	> (values below the line were determined using two concentrations of peptide 200 or 100 μg/mL)	> (values below the line were determined using two concentrations of peptide 200 or 100 μg/mL)	100 µg/mL	100 µg/mL	100 µg/mL	100 µg/mL	> (no inhibition was observed at the highest concentration of peptide tested: 100 μg/mL for the STIP3 variants)	100 µg/mL	100 µg/mL	100 µg/mL	> (> symbol indicates that no inhibition was observed at the highest concentration of peptide tested: 25 μg/mL)
TVRALVRWILRTVARFA [STIP3-23, TVRALVRWILRTVARFA]	> (> symbol indicates that no inhibition was observed at the highest concentration of peptide tested: 100 μg/mL)	≤ 100 µg/mL	> (values below the line were determined using two concentrations of peptide 200 or 100 μg/mL)	≤ 100 µg/mL	> (values below the line were determined using two concentrations of peptide 200 or 100 μg/mL)	> (values below the line were determined using two concentrations of peptide 200 or 100 μg/mL)	≤ 100 µg/mL	> (values below the line were determined using two concentrations of peptide 200 or 100 μg/mL)	> (values below the line were determined using two concentrations of peptide 200 or 100 μg/mL)	> (values below the line were determined using two concentrations of peptide 200 or 100 μg/mL)	> (values below the line were determined using two concentrations of peptide 200 or 100 μg/mL)	25 µg/mL	25 µg/mL	6.25 µg/mL	25 µg/mL	25 µg/mL	25 µg/mL	50 µg/mL	50 µg/mL	12.5 µg/mL
